Results on 1 compound are retold here after US20040092532A1, “Use of p38 inhibitors for the treatment of smoke inhalation” (priority 2003, published 2004).

For assay [1], the system named is citric acid-induced cough. Description: Citric Acid Induced Cough Model (direct antitussive activity). Format: in vivo. Conditions: inhaled citric acid-induced cough, conscious guinea pigs; FIG. 4. On the procedure: The directed antitussive activity of the compound in question if first assessed, by a 10 to 30 minute pretreatment period by intraperitoneal injection or a 1 hour pretreatment period for oral administration. The animals (guinea pigs) are then subjected to an inhaled citric acid-induced cough challenge. Inhalation of citric acid (CA; 0.4% for 1 minute) induced 11 to 15 coughs, during the exposure and 12-minute monitoring period in conscious guinea pigs.

Assay [2] concerns LTD4-induced hypertussive response and airway eosinophilia. Nature of the assay: LTD4-Induced Hypertussive Model (citric acid challenge). It is filed as in vivo, guinea pigs. Conditions: oral 30 mg/kg b.i.d., inhaled LTD4 10 ug/ml for 1 minute, 72 hours after exposure. The procedure:
The effects of the compound are then assessed on the hypertussive response that occurs 72 hours post aerosol exposure to antigen or LTD4 exposure. Treatment of the animals occurs with the drug prior and/or after antigen or LTD4 challenge, but not on the day of citric acid challenge. […] Similarly, inhalation of LTD4 (10 ug/ml for 1 minute) increased cough incidence and airway esoinophiles 72 hours after exposure.

For assay [3], the system named is antigen-induced hypertussive response to citric acid. Nature of the assay: Antigen-Induced Hypertussive Model (ovalbumin, citric acid challenge). Format: in vivo. Conditions: sensitized guinea pigs exposed to inhaled ovalbumin. The procedure:
The effects of the compound are then assessed on the hypertussive response that occurs 72 hours post aerosol exposure to antigen or LTD4 exposure. Treatment of the animals occurs with the drug prior and/or after antigen or LTD4 challenge, but not on the day of citric acid challenge. Inhalation of citric acid (CA; 0.4% for 1 minute) induced 11 to 15 coughs, during the exposure and 12-minute monitoring period in conscious guinea pigs.

With `COc1nccc(-c2c(-c3ccc(F)cc3)ncn2[C@H]2CC[C@H](O)CC2)n1` [Compound I, trans-1-(4-Hydroxycyclohexyl)-4-(4-fluorophenyl)-5-[(2methoxy)pyrimidin-4-yl]imidazole], the direct antitussive effect entry in assay [1] was “no direct antitussive effect”. Further, the LTD4-induced eosinophilia entry in assay [2] was “blocked the LTD4-induced esoinophilia”. Further, the “cough response after LTD4” value in assay [2] (FIG. 5) is listed as “normalized the cough response”. Besides, in assay [3] (bronchoalveolar lavage), the airway eosinophilia entry was “reduce airway eosinophilia”. Moreover, the “hypertussive state (CA-induced cough incidence)” value in assay [3] (citric acid challenge) was “normalizes the hypertussive state”.
